The values that follow come from patent US20060148858A1, “1, 2-Azole derivatives with hypoglycemic and hypolipidemic activity” (priority 2002, published 2006).

Where two headings read alike, the source gives them in different places.

In data set [1] the target is T1, PPARγ-RXRα heterodimer (Homo sapiens, UniProt P37231).
T1 construct: expressed in transfected cells; host or cells: CHO-K1
T1 sequence (P37231 1-477 isoform P37231-2): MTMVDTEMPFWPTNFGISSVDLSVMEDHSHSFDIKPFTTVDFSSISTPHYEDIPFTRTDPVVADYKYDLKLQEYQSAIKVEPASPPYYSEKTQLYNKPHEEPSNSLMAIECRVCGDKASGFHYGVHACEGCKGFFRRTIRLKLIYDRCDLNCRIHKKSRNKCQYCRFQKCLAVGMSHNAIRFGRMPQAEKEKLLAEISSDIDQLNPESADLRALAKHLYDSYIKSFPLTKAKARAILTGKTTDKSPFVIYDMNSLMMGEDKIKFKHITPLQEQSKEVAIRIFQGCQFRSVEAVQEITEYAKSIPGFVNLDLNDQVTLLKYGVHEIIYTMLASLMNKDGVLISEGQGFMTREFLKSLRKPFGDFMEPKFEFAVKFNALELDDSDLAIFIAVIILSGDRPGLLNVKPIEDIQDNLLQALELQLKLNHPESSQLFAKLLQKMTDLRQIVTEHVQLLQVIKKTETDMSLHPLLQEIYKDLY
T1 sequence (P19793 1-462 partner): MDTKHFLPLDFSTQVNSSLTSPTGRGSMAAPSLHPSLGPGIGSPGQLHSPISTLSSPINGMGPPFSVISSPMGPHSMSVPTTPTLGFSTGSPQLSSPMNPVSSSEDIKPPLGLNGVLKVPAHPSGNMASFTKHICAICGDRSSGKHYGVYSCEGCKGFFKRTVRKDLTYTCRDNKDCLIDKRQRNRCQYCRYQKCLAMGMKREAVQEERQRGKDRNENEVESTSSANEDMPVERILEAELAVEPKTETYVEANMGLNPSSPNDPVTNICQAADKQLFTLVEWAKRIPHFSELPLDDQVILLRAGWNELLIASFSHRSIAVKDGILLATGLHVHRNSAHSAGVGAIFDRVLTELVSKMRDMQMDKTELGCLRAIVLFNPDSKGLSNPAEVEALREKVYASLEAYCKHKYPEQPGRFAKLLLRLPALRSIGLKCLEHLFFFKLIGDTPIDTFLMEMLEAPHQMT
As to the kind of experiment: PPARγ-RXRα heterodimer ligand activity, luciferase reporter in PPARγ:RXRα:4ERPP/CHO-K1 cells (Test Example 3). Particulars: 18-48 hours, concentration for 50% of the maximum fold induction. The format is cell-based. On the procedure:
A PPARγ: RXRα: 4ERPP/CHO-K1 cells obtained in Reference Example 8a described later were cultured in HAM F12 medium (produced by Life Technologies, Inc., USA) containing 10% Fetal bovine serum (produced by Life Technologies, Inc., USA) and then inoculated to a 96-well white plate (produced by Corning Costar Corporation, USA) at the density of 2×10^4 cells/well, and cultured in a CO2 gas incubator at 37° C. overnight.
After removing the medium from 96 well white plate, 80 μl of HAM F12 medium containing 0.1% fatty acid-free bovine serum albumin (BSA) and 20 μl of test compound were added, which was cultured in a CO2 gas incubator at 37° C. for 18-48 hours. After removing the medium, 40 μl of PIKKAGENE 7.5 (produced by Wako Pure Chemical Industries, Ltd.) diluted twice with HBSS (HANKS' BALANCED SALT SOLUTION)(produced by BIO WHITTAKER Inc., USA), was added. After stirring, the luciferase activity was determined using 1420 ARVO Multilabel Counter (produced by PerkinElmer Inc., USA).
A fold induction was calculated based on the luciferase activity of each test compound by taking the luciferase activity in the non-treatment group as 1. The values of the test compound concentration and the fold induction were analyzed using PRISM (produced by GraphPad Software Inc. USA) to calculate the EC50 values, the effective concentration of a test compound for 50% of the maximum fold induction.
After a CHO-K1 cell cultured in a 150 cm^2 cell culture flask (750 ml)(produced by Corning Costar Corporation, USA) containing HAM F12 medium (produced by Life Technologies, Inc., USA) supplemented with 10% Fetal Bovine Serum (produced by Life Technologies, Inc., USA) was scraped by treating with 0.5 g/L trypsin-0.2 g/L EDTA (ethylenediaminetetraacetic acid) (produced by Life Technologies, Inc., USA), the cell was washed with PBS (phosphate-buffered saline) (produced by Life Technologies, Inc., USA), centrifuged (1000 rpm, 5 minutes), and then suspended in PBS. Subsequently, a DNA was introduced into the cell under the condition shown below using GENE PULSER (produced by Bio-Rad Laboratories, USA).
Namely, to a cuvette having a 0.4 cm gap, added were 8×10^6 cells and 10 μg of plasmid pVgRXR2-hPPARγ obtained in Reference Example 7a and 10 μg of reporter plasmid pGL3-4ERPP-TK neo obtained in Reference Example 5a, which was subjected to electroporation at the voltage of 0.25 kV under the capacitance of 960 μF. Subsequently, the cell was transferred into a HAM F12 medium containing 10% Fetal Bovine Serum and cultured for 24 hours and then the cell was scraped again and centrifuged, and then suspended in HAM F12 medium containing 10% Fetal Bovine Serum supplemented with 500 μg/ml of GENETICIN (produced by Life Technologies, Inc., USA) and 250 μg/ml of ZEOCIN (produced by Invitrogen, USA). The obtained suspension was diluted to the density of 10^4 cells/ml and inoculated to a 96-well plate (produced by Corning Costar Corporation, USA), which was cultured in a CO2 gas incubator at 37° C., whereby obtaining a GENETICIN- and ZEOCIN-resistant transformant.
Subsequently, after the transformant cell line thus obtained was cultured in a 24-well plate (produced by Corning Costar Corporation, USA), selected was a cell line in which the luciferase was expressed and induced, i.e., PPARγ:RXRα:4ERPP/CHO-K1 cell by addition of 10 μM of pioglitazone hydrochloride.
On the technique in general: Reporter assays use an easily measured gene product as a stand-in for the process of interest.

Data set [2] concerns KKAY mice. In words: Hypoglycemic and hypolipidemic actions in mice (Test Example 1). It is filed as in vivo. Particulars: Mus musculus, po, 96 h, 0.005% in powdery diet, four days, non-treated group taken as 100%. On the procedure:
Test compounds were mixed in a powdery diet (CE-2, Japan Clea) at the concentration of 0.005%, and freely given to KKAY mice (9 to 12 weeks old, 5 mice in a group), a model of obese and non-insulin dependent diabetes (type 2 diabetes), for four days. During this period, water was given freely. Blood was sampled from orbital venous plexus, and glucose and triglyceride levels in plasma separated from blood were determined enzymatically using L type Wako Glu2 (Wako Pure Chemical Industries, Ltd.) or L type Wako TG·H (Wako Pure Chemical Industries, Ltd.), respectively.
In the table, “hypoglycemic action (%)” means the rate of decrease (%) in the blood glucose level of the treated group when the blood glucose level of the non-treated group is taken as 100%. In addition, the “hypolipidemic action (%)” means the rate of decrease (%) in the blood triglyceride level of the treated group when the blood triglyceride level of the non-treated group is taken as 100%.

Where [3] appears, read: rate of decrease in blood glucose level, read-out: Hypoglycemic action (%).
Setting [4] is: rate of decrease in blood triglyceride level, read-out: Hypolipidemic action (%).

As usually defined, the EC50 is the concentration giving half of the maximal effect. A high value points to a need for much substance. One may read the melting point as the temperature, or range, at which the solid turns liquid.

Regarding `CCOc1cccc(CC(=O)O)c1OCCCc1cn(-c2ccc(C(F)(F)F)cn2)nc1C(CC)CC` [Example 221, [3-ethoxy-2-(3-{3-(1-ethylpropyl)-1-[5-(trifluoromethyl)-2-pyridyl]-1H-pyrazol-4-yl}propoxy)phenyl]acetic acid], the melting point was in the range of 83 to 84 °C. This molecule gave an EC50 in data set [1] of 12 nM. For the same molecule, the inhibition in vivo at 0.005 % in diet in data set [2] (setting [3]) was 46%. In addition, in data set [2] (setting [4]), the inhibition in vivo at 0.005 % in diet worked out at 21%.

Molecule `CCCCc1nn(-c2ccc(C(F)(F)F)cn2)cc1CCCOc1c(CC(=O)O)cccc1OC` [Example 197, [2-(3-{3-butyl-1-[5-(trifluoromethyl)-2-pyridyl]-1H-pyrazol-4-yl}propoxy)-3-methoxyphenyl]acetic acid] displayed a melting point of 121 to 122 °C. The molecule further gave a half-maximal effective concentration (EC50) in data set [1] of 22 nM. Also, the inhibition in vivo at 0.005 % in diet in data set [2] (setting [3]) was 45%. Besides, in data set [2] (setting [4]), the inhibition in vivo at 0.005 % in diet is 65%.

In turn, `CCC(CC)c1nn(-c2ccc(C(F)(F)F)cn2)cc1CCCOc1ccccc1CC(=O)O` [Example 215, [2-(3-{3-(1-ethylpropyl)-1-[5-(trifluoromethyl)-2-pyridyl]-1H-pyrazol-4-yl}propoxy)phenyl]acetic acid] registered a melting point of 65 to 66 °C. Also, a half-maximal response in data set [1] (EC50) required 20 nM. Moreover, the inhibition in vivo at 0.005 % in diet in data set [2] (setting [3]) turned out to be 50%. In addition, the inhibition in vivo at 0.005 % in diet in data set [2] (setting [4]) was 45%.

As for `CCCc1nn(-c2ccc(C(F)(F)F)cn2)cc1CCCOc1c(CC)cccc1CC(=O)O` [Example 229, [3-ethyl-2-(3-{3-propyl-1-[5-(trifluoromethyl)-2-pyridinyl]-1H-pyrazol-4-yl}propoxy)phenyl]acetic acid], the melting point was 146 to 147 °C. This molecule displayed an EC50 in data set [1] of 21 nM. Besides, the inhibition in vivo at 0.005 % in diet in data set [2] (setting [3]) worked out at 41%. Besides, the inhibition in vivo at 0.005 % in diet in data set [2] (setting [4]) is 49%.

In turn, `CC(C)c1nn(-c2ccc(C(F)(F)F)cn2)cc1CCCOc1c(Br)cccc1CC(=O)O` [Example 235, [3-bromo-2-(3-{3-isopropyl-1-[5-(trifluoromethyl)-2-pyridinyl]-1H-pyrazol-4-yl}propoxy)phenyl]acetic acid] yielded a melting point of 146 to 147 °C. Besides, the EC50 in data set [1] worked out at 26 nM. For the same molecule, in data set [2] (setting [3]), the inhibition in vivo at 0.005 % in diet turned out to be 43%. The inhibition in vivo at 0.005 % in diet in data set [2] (setting [4]) was 64%.

The molecule `COc1cccc(CC(=O)O)c1OCCCc1cn(-c2ccc(Br)cn2)nc1C(C)C` [Example 218, (2-{3-[1-(5-bromo-2-pyridyl)-3-isopropyl-1H-pyrazol-4-yl]propoxy}-3-methoxyphenyl)acetic acid] returned a melting point of 152 to 153 °C. Moreover, the EC50 in data set [1] stood at 51 nM. Moreover, the inhibition in vivo at 0.005 % in diet in data set [2] (setting [3]) was 34%. Further, the inhibition in vivo at 0.005 % in diet in data set [2] (setting [4]) came out at 43%.

For `CCCC(C)c1nn(-c2ccc(C(F)(F)F)cn2)cc1CCCOc1c(CC(=O)O)cccc1OC` (centres unmarked) [Example 220, [3-methoxy-2-(3-{3-(1-methylbutyl)-1-[5-(trifluoromethyl)-2-pyridyl]-1H-pyrazol-4-yl}propoxy)phenyl]acetic acid], the melting point fell in the range of 107 to 108 °C. Further, the EC50 in data set [1] is 9.6 nM. For the same molecule, in data set [2] (setting [3]), the inhibition in vivo at 0.005 % in diet amounted to 44%. The inhibition in vivo at 0.005 % in diet in data set [2] (setting [4]) amounted to 50%.

Molecule `CCC(C)c1nn(-c2ccc(C(F)(F)F)cn2)cc1CCCOc1c(CC(=O)O)cccc1OC` (centres unmarked) [Example 216, [3-methoxy-2-(3-{3-(1-methylpropyl)-1-[5-(trifluoromethyl)-2-pyridyl]-1H-pyrazol-4-yl}propoxy)phenyl]acetic acid] showed a melting point of 117 to 118 °C. This molecule gave an EC50 in data set [1] of 18 nM. Besides, in data set [2] (setting [3]), the inhibition in vivo at 0.005 % in diet amounted to 46%. Further, the inhibition in vivo at 0.005 % in diet in data set [2] (setting [4]) is 61%.

On to `COc1cccc(CC(=O)O)c1OCCCc1cn(-c2ccc(C)cn2)nc1C(C)C` [Example 272, (3-methoxy-2-{3-[3-isopropyl-1-(5-methyl-2-pyridyl)-1H-pyrazol-4-yl]propoxy}phenyl)acetic acid], for which the melting point lay within 132 to 133 °C. The same molecule had an EC50 in data set [1] of 50 nM. Also, the inhibition in vivo at 0.005 % in diet in data set [2] (setting [3]) came to 48%. In data set [2] (setting [4]), the inhibition in vivo at 0.005 % in diet was found to be 69%.

As to `CCC(CC)c1nn(-c2ccc(C(F)(F)F)cn2)cc1CCCOc1c(F)cccc1CC(=O)O` [Example 214, [2-(3-{3-(1-ethylpropyl)-1-[5-(trifluoromethyl)-2-pyridyl]-1H-pyrazol-4-yl}propoxy)-3-fluorophenyl]acetic acid], the melting point lay in the range of 102 to 103 °C. This molecule also displayed an EC50 in data set [1] of 18 nM. The inhibition in vivo at 0.005 % in diet in data set [2] (setting [3]) worked out at 44%. Further, in data set [2] (setting [4]), the inhibition in vivo at 0.005 % in diet was 52%.

Regarding `CC(C)c1nn(-c2ccc(C(F)(F)F)cn2)cc1CCCOc1c(Cl)cccc1CC(=O)O` [Example 239, [3-chloro-2-(3-{3-isopropyl-1-[5-(trifluoromethyl)-2-pyridinyl]-1H-pyrazol-4-yl}propoxy)phenyl]acetic acid], the melting point was 141 to 142 °C. Also, in data set [1], the EC50 turned out to be 35 nM. The inhibition in vivo at 0.005 % in diet in data set [2] (setting [3]) was found to be 42%. In addition, the inhibition in vivo at 0.005 % in diet in data set [2] (setting [4]) stood at 65%.
